Experimental findings from patent US20250339391A1, “METHODS FOR EFFECTIVE MANAGEMENT OF PAIN” (South Rampart Pharma, Inc., priority 2024, published 2025) are described below.

Entries after “also recorded” stand apart in the source; their conditions may differ.

One data set addresses T1, hERG current (Homo sapiens, UniProt Q12809).
T1 construct: expressed in transfected cells; host or cells: human embryonic kidney cells
The data set is described as follows: In vitro hERG cardiotoxicity assay in human embryonic kidney cells. The format is cell-based. The procedure:
The effects of SRP-001 on hERG current amplitude at physiologic temperatures were evaluated over a nominal concentration range of 0.1 μM to 100M. A vehicle group (10% DMSO) was included in the study for comparison, and dofetilide (10 nM) was used as a reference substance. The vehicle and positive controls indicated appropriate sensitivity of the test systems. […] Next, the potential acute effects of oral SRP-001 on cardiovascular function in conscious telemetered beagle dogs was done using a Latin Square design; 4 male naïve beagle dogs each received vehicle (10% DMSO: 10% labrasol: 80% PEG400) and three doses (30, 90, and 150 mg/kg) of SRP-001 nanosuspension by oral gavage. […] A single dose was administered on the day of dosing, and a washout period of seven days was allowed between doses. One-min means of hemodynamic parameters, as well as ECG parameters and body temperature, were measured for a period of at least 24 h. One-min tracings of the ECGs were obtained at 15 min prior to dosing and at 30 min, 1, 2, 4, 8, 12, and 24 h post-dose. Qualitative evaluation of the ECGs was done by a board-certified veterinary cardiologist.

The subject of data set [1] is conscious male Sprague-Dawley rats. The data set is described as follows: Pulmonary function evaluation in conscious male Sprague-Dawley rats (GLP). In kind it is in vivo, rat. Particulars: 220, 440 and 660 mg/kg oral. On the procedure:
The potential effects of orally administered SRP-001 on respiratory rate, tidal volume, and minute volume in conscious male Sprague-Dawley rats was studied in 24 male rats. The rodents were trained for two days in the head-out plethysmograph chamber for 15-17 min each prior to the experiment. On the day of dosing, each animal was weighed and placed in the plethysmograph chamber, and baseline respiratory parameters were obtained for 5 min following an approximately 5-min stabilization period. The rats were then removed from the chamber and dosed by oral gavage. Three groups of six male Sprague-Dawley rats each were orally administered SRP-001 at a single dose of 220, 440, or 660 mg/kg at a dose volume of 10 mL/kg. […] Following dosing, each animal was returned to its designated plethysmograph chamber, and the respiratory parameters were recorded at 30 min (±5 min), 2, 4, and 6 h (±15 min). Animals were allowed to stabilize in the plethysmograph chamber for at least 5 min before each reading was taken. The following parameters were acquired, recorded, and analyzed using Ponemah Physiology Platform (Ponemah v.5.20 Pulmonary); Respiratory rate, Tidal Volume, and Minute Volume, Values for the test article treated group were compared to the vehicle control values using a two-way repeated measures ANOVA followed by a Bonferroni Multiple Comparison Test (SigmaStat, v. 4.0). […]

Data set [2] in a line: Genotoxicity battery, weight of the evidence. Particulars: Ames, chromosomal aberration, micronucleus and Comet assays. The procedure:
To transition SRP-001 into the clinic for human use, a full set of in vivo and in vitro genotoxicity studies were performed to assess the potential genotoxicity of SRP-001.
To further evaluate the potential genotoxicity of SRP-001 and determine the validity of the in vitro findings, a second in vivo assay, a GLP-compliant Comet assay, was conducted in accordance with ICH S2(R1) Guidance on Genotoxicity Testing and Data Interpretation for Pharmaceuticals Intended for Human Use. […] SRP-001 was tested to evaluate its mutagenic potential by measuring its ability to induce reverse mutations at selected loci of several strains of Salmonella typhimurium (S. typhimurium) and at the tryptophan locus of Escherichia coli (E. coli) strain WP2 uvrA in the presence and absence of an exogenous metabolic activation system (Bioreliance, Rockville, MD USA). Dimethyl sulfoxide (10% DMSO) was used as the vehicle. The dose levels tested in the preliminary toxicity assay were 6.67, 10.0, 33.3, 66.7, 100, 333, 667, 1000, 3333, and 5000 μg per plate. No precipitate was observed. […] The dose levels tested in the mutagenicity assay were 100, 333, 667, 1000, 3333, and 5000 μg per plate. […] In the preliminary toxicity assay, the doses tested ranged from 0.0405 to 405 μg/mL (1 mM), which was the limit dose for this assay (Bioreliance, Rockville, MD USA).

A further data set deals with male Sprague-Dawley rats. To be noted: rat, in vivo. On the procedure: 1) Dose-Range-Finding Oral Toxicity Study with SRP-001 in Sprague-Dawley Rats (non-GLP) As part of a two-phase study, the maximum tolerated dose (MTD) of SRP-001 when administered via gavage once to Sprague-Dawley Rats using an ascending/descending dose design (Calvert Labs/Altasciences, Scott Township, PA USA). A total of 12 male Sprague-Dawley rats (3/dose group), approximately 8-9 weeks old and weighing 245-307 g, were administered single doses of […], 1000, 1500, or 2000 mg/kg SRP-001. Mortality/morbidity was performed twice daily and once prior to scheduled sacrifice. Clinical observations were evaluated prior to each dose administration and approximately 1-3 h post-dose, once daily on non-dosing days and additionally as needed. Body weights were recorded for animals in Groups 1-4 prior to randomization/selection, each dose administration, and scheduled sacrifice on day 3. Food consumption was recorded on day 3. […] Based on the results of this study, doses for the second phase were selected.

A further data set concerns male Beagle dogs. To be noted: dog, in vivo. The procedure:
6) A Two-day Oral Dose Toxicity and Pharmacokinetic Study of SRP-001 in Beagle Dogs Non-GLP) SRP-001 was supplied by Olon Ricerca Bioscience as an off-white powder and then prepared as dosing suspensions for oral administration via gavage (Calvert Labs/Altasciences, Scott Township, PA USA). Six experimentally non-naïve male Beagle dogs (3/dose), at least 7 months old and weighing 7.2 to 10.2 kg prior to treatment initiation, were administered 100 or 900 mg/kg/d SRP-001. Animals were dosed three times daily (3-5 h between doses) for 2 d. Mortality/morbidity was performed twice daily. On the day of dosing, animals were observed prior to each dose administration and approximately 1-3 h after each dose. Animals were also observed once on day 3. Body weights were recorded for all animals prior to the first dose administration on days 1 and 3, and food consumption was recorded daily. Blood for bioanalytical evaluation was collected at selected timepoints on day 1. Following the completion of the study, surviving animals were not euthanized and were returned to the Calvert colony.

T1 sequence (Q12809 whole entry): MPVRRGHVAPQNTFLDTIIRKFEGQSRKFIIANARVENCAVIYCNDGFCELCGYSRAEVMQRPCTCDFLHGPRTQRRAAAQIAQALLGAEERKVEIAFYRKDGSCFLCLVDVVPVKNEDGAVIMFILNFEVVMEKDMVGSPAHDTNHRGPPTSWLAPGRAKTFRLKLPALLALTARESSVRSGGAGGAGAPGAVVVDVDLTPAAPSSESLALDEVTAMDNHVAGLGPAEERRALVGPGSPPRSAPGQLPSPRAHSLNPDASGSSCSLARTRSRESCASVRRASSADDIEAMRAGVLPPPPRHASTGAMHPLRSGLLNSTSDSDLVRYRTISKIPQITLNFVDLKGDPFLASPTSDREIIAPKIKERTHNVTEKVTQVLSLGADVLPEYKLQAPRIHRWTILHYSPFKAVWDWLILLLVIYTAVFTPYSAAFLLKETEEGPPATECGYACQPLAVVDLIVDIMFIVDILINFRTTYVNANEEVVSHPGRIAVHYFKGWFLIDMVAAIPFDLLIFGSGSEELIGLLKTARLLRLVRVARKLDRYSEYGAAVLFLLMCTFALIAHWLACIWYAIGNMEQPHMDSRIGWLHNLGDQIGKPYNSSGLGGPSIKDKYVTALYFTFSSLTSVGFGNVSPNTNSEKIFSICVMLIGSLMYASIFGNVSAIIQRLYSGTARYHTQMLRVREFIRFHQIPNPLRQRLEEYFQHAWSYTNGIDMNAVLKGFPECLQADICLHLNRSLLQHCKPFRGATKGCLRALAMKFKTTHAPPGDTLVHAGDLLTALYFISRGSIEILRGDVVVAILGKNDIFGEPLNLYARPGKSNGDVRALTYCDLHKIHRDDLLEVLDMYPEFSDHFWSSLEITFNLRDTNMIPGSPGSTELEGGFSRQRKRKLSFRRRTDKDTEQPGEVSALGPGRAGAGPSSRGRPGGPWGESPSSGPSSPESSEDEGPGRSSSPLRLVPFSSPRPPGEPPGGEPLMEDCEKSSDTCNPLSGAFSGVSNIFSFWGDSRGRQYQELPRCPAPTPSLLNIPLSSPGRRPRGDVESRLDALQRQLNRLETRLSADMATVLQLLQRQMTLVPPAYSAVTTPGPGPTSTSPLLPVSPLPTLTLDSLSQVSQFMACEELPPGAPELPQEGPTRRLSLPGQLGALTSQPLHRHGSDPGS

For the compound `CCN(CC)C(=O)c1ccccc1S(=O)(=O)NCC(=O)Nc1ccc(O)cc1` [SRP-001, N,N-diethyl-2-[[2-(4-hydroxyanilino)-2-oxo-ethyl]sulfamoyl]benzamide], the “hERG signal / blocker class” value on hERG current (0.1 μM to 100 μM) is reported as “weak blocker of hERG current; also recorded: absent relevant signal”. In addition, the “block of hERG current” value at hERG current (100 μM, highest concentration tested, physiologic temperatures) came to 21.4±3.9%. Besides, in data set [1], the “effects on respiratory rate, tidal volume, minute volume” value is given as “no effects on pulmonary function or cardio-telemetry; also recorded: did not induce any significant effects”. Moreover, the “genotoxicity, overall conclusion” value in data set [2] is recorded as “not genotoxic; also recorded: negative for genotoxicity”. For the same compound, in the data set with male Sprague-Dawley rats, the “clinical observations after single dose” value was “Nearly all the animals appeared normal following dosing” and the “mortality after single doses” value was “did not result in any mortality”. Moreover, in the data set with male Beagle dogs, the emesis entry was “Nearly all animals had emesis”. In the data set with male Beagle dogs (male, Beagle), the “amplification in peak plasma concentration” value is 3-4 fold. For the same compound, in the data set on male Beagle dogs (male, Beagle, 2 d), the tolerated dose was 900 mg/kg/day.
